Data on twelve compounds can be found in patent publication US20260083851A1 (AVILAR THERAPEUTICS, INC., priority 2022, published 2026).

The target in assay [1] is T1, ASGPR receptor on HepG2 cells (ternary complex with AF488-labeled antibody) (Homo sapiens, UniProt P07306).
T1 construct: host or cells: HepG2
T1 sequence (P07306 1-291): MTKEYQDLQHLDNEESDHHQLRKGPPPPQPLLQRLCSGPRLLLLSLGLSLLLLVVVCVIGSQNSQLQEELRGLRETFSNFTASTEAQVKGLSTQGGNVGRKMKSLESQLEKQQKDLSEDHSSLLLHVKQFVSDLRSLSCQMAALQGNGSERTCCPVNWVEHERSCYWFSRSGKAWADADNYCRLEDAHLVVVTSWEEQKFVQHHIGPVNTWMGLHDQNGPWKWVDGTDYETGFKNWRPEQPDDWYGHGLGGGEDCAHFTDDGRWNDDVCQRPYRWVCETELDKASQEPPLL
T1 sequence (P07307 1-311 partner): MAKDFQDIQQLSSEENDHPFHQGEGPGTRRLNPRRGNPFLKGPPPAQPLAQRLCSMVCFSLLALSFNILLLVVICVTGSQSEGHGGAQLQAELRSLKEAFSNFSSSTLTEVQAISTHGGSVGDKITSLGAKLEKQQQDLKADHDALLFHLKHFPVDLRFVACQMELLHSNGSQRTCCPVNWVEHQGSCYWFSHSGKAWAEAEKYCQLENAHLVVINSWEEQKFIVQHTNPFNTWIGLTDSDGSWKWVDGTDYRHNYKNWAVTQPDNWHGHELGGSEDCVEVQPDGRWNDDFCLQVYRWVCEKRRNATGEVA
Nature of the assay: Ternary complex formation assay (flow cytometry, cell-associated AF488 fluorescence). It is filed as cell-based. The method, then:
Human IgG (Sigma-Aldrich, 14506) was covalently labeled with Alexa Fluor 488 using the Alexa Fluor™ 488 Protein Labeling Kit (Thermo Fisher, A10235) following the manufacturer's instructions. HepG2 cells (ATCC, HB-8065) were cultured to about 70% confluence and harvested by trypsinization. Single cell suspensions of HepG2 cells were plated in 96 well plates at 1×10^5 cells/well in cell culture media (DMEM supplemented with 10% FBS) and placed at 4° C. For studies using human IgG, cells were incubated with 100 nM AF488-labeled anti-human IgG and serial dilutions of IgG-based degrader for 1 hour at 4° C. For studies using DNP, cells were incubated with 100 nM AF488-labeled polyclonal rabbit anti-dinitrophenyl (DNP) antibodies (ThermoFisher) and serial dilutions of DNP-based degrader for 1 hour at 4° C. After washing once with ice-cold PBS containing 0.1% BSA and 0.1% sodium azide, cells were resuspended in 150 uL PBS+0.1% BSA and cell-associated AF488 fluorescence was measured by flow cytometry using the iQue® Screener PLUS Flow Cytometer (IntelliCyt). […]
For orientation: A flow cytometer gives signals particle by particle.

In assay [2] the target is T2, ASGPR (Homo sapiens, UniProt P07306).
T2 construct: biotin (biotinylated)
T2 sequence (P07306 1-291): T1 sequence (P07306 1-291)
In words: ASGPR SPR binding. In general terms: SPR reads the build-up and loss of mass on a sensor chip optically.

Assay [3] addresses IgG. In words: IgG SPR binding. As to conditions: second table, read-out: IgG KD.
Where [4] appears, read: 100 nM AF488-labeled antibody, 1 hour at 4° C., the 25th table, class symbols, read-out: TCF EC50.
The mark [5] stands for this setting: second table, read-out: ASGPR KD.
Setting [6] is: read-out: TCF EC50, 100 nM AF488-labeled antibody, 1 hour at 4° C., the 25th table, class symbols.
Where [7] appears, read: read-out: ASGPR KD, second table.

Structures are written as SMILES. Where two headings read alike, the source gives them in different places. Starred links: 1 amine or outer side, 2 acyl side, 3 side chain; linkers in the order of their positions; H or OH if unused. Positions of bridges follow the written chain, without caps; N, C: chain ends. Non-standard residues stand in square brackets, D forms with d. Residues, ends and D or L forms follow the SMILES beside them. ξ: configuration not given here. *: point of attachment. X1 = O=C(CCOCC(COCCC(=O)NCCOCCOCCOCCOCC1OCC(Nc2cncc(C(F)(F)F)n2)C(O)C1O)NCC(=O)*)NCCOCCOCCOCCOCC1OCC(Nc2cncc(C(F)(F)F)n2)C(O)C1O; ξPro(4ξ-NH2) = O=C(C1CC(N[*:3])CN1[*:1])[*:2]

For `CC(C)CC1NC(=O)C(Cc2cnc[nH]2)NC(=O)C(Cc2c[nH]c3ccccc23)NC(=O)C(C)NC(=O)C2CSSCC(NC(=O)C(Cc3c[nH]c4ccccc34)NC(=O)C(C(C)C)NC(=O)C(CC(C)C)NC(=O)C(CCC(=O)O)NC(=O)CNC1=O)C(=O)NC(C(C)O)C(=O)N1CCCC1C(=O)N1CC(NC(=O)CCOCCOCCOCCOCCNC(=O)CCCc3cn(CCCCCC(=O)NC(COCCC(=O)NCCOCCOCCOCCOCC4OCC(Nc5cncc(C(F)(F)F)n5)C(O)C4O)COCCC(=O)NCCOCCOCCOCCOCC4OCC(Nc5cncc(C(F)(F)F)n5)C(O)C4O)nn3)CC1C(=O)NC(CC(=O)O)C(=O)N2` (stereo not drawn) [compound 82], the EC50 in assay [1] (setting [4]) is under 100 nM. In addition, the Kd in assay [2] (setting [5]) and in assay [3] was under 100 nM throughout.
For `CC(C)CC1NC(=O)C(Cc2cnc[nH]2)NC(=O)C(Cc2c[nH]c3ccccc23)NC(=O)C(C)NC(=O)C2CSSCC(NC(=O)C(Cc3c[nH]c4ccccc34)NC(=O)C(C(C)C)NC(=O)C(CC(C)C)NC(=O)C(CCC(=O)N(C)C)NC(=O)CNC1=O)C(=O)NC(C(C)O)C(=O)N1CCCC1C(=O)N1CC(NC(=O)CNC(COCCC(=O)NCCOCCOCCOCCOCC3OCC(Nc4cncc(C(F)(F)F)n4)C(O)C3O)COCCC(=O)NCCOCCOCCOCCOCC3OCC(Nc4cncc(C(F)(F)F)n4)C(O)C3O)CC1C(=O)NC(CC(N)=O)C(=O)N2` (stereo not drawn) [compound 73] (cyclo(GE(NMe2)LVWCTP[ξPro(4ξ-NH2)](X1)NCAWHL); disulfide 6-11; configuration not given here), the EC50 in assay [1] (setting [6]) was under 100 nM. Moreover, the Kd in assay [2] (setting [7]) and in assay [3] was under 100 nM in each case.
For `CC(C)CC1NC(=O)C(Cc2cnc[nH]2)NC(=O)C(Cc2c[nH]c3ccccc23)NC(=O)C(C)NC(=O)C2CSSCC(NC(=O)C(Cc3c[nH]c4ccccc34)NC(=O)C(C(C)C)NC(=O)C(CC(C)C)NC(=O)C(CCC(=O)O)NC(=O)CNC1=O)C(=O)NC(C(C)O)C(=O)N1CCCC1C(=O)N1CC(NC(=O)CCCc3cn(CC4OCC(Nc5cncc(C(F)(F)F)n5)C(O)C4O)nn3)CC1C(=O)NC(CC(=O)O)C(=O)N2` (stereo not drawn) [compound 78], the EC50 in assay [1] (setting [6]) was under 100 nM. Besides, the Kd in assay [2] (setting [5]) and in assay [3] was under 100 nM in each case.
Take `CC(C)CC1NC(=O)C(Cc2cnc[nH]2)NC(=O)C(Cc2c[nH]c3ccccc23)NC(=O)C(C)NC(=O)C2CSSCC(NC(=O)C(Cc3c[nH]c4ccccc34)NC(=O)C(C(C)C)NC(=O)C(CC(C)C)NC(=O)C(CCC(=O)O)NC(=O)CNC1=O)C(=O)NC(C(C)O)C(=O)N1CCCC1C(=O)N1CC(NC(=O)C3CCC(C(=O)NCC4OCC(Nc5cncc(C(F)(F)F)n5)C(O)C4O)CC3)CC1C(=O)NC(CC(=O)O)C(=O)N2` (stereo not drawn) [compound 45]: in assay [1] (setting [6]), the EC50 was over 1000 nM. The results for the Kd in assay [2] (setting [5]) and in assay [3] were 100 to 500 nM and under 100 nM, respectively.
For the compound `CC(C)CC1NC(=O)C(Cc2cnc[nH]2)NC(=O)C(Cc2c[nH]c3ccccc23)NC(=O)C(C)NC(=O)C2CSSCC(NC(=O)C(Cc3c[nH]c4ccccc34)NC(=O)C(C(C)C)NC(=O)C(CC(C)C)NC(=O)C(CCC(=O)O)NC(=O)CNC1=O)C(=O)NC(C(C)O)C(=O)N1CCCC1C(=O)N1CC(NC(=O)CNC(COCCC(=O)NCCOCCOCCOCCOCC3OCC(Nc4cncc(C(F)(F)F)n4)C(O)C3O)COCCC(=O)NCCOCCOCCOCCOCC3OCC(Nc4cncc(C(F)(F)F)n4)C(O)C3O)CC1C(=O)NC(CC(=O)O)C(=O)N2` (stereo not drawn) [compound 46], the EC50 in assay [1] (setting [6]) was under 100 nM. The Kd in assay [2] (setting [7]) and in assay [3] was under 100 nM in each case.
As to `CC(C)CC1NC(=O)C(Cc2cnc[nH]2)NC(=O)C(Cc2c[nH]c3ccccc23)NC(=O)C(C)NC(=O)C2CSSCC(NC(=O)C(Cc3c[nH]c4ccccc34)NC(=O)C(C(C)C)NC(=O)C(CC(C)C)NC(=O)C(CCC(=O)O)NC(=O)CNC1=O)C(=O)NC(C(C)O)C(=O)N1CCCC1C(=O)N1CC(NC(=O)COCCOCC(=O)NCC3OCC(Nc4cncc(C(F)(F)F)n4)C(O)C3O)CC1C(=O)NC(CC(=O)O)C(=O)N2` (stereo not drawn) [compound 50], the EC50 in assay [1] (setting [6]) was under 100 nM. Also, the Kd in assay [2] (setting [5]) and in assay [3] was under 100 nM throughout.
Regarding `CC(C)CC1NC(=O)C(Cc2cnc[nH]2)NC(=O)C(Cc2c[nH]c3ccccc23)NC(=O)C(C)NC(=O)C2CSSCC(NC(=O)C(Cc3c[nH]c4ccccc34)NC(=O)C(C(C)C)NC(=O)C(CC(C)C)NC(=O)C(CCC(=O)O)NC(=O)CNC1=O)C(=O)NC(C(C)O)C(=O)N1CCCC1C(=O)N1CC(NC(=O)CCCc3cn(CCCCCC(=O)NC(COCCC(=O)NCCOCC4OCC(Nc5nccc(C(F)(F)F)n5)C(O)C4O)COCCC(=O)NCCOCC4OCC(Nc5nccc(C(F)(F)F)n5)C(O)C4O)nn3)CC1C(=O)NC(CC(=O)O)C(=O)N2` (stereo not drawn) [compound 76], the EC50 in assay [1] (setting [4]) was under 100 nM. Besides, the dissociation constant (Kd) in assay [2] (setting [5]) and in assay [3] was under 100 nM in each case.
Take `CC(C)CC1NC(=O)C(Cc2cnc[nH]2)NC(=O)C(Cc2c[nH]c3ccccc23)NC(=O)C(C)NC(=O)C2CSSCC(NC(=O)C(Cc3c[nH]c4ccccc34)NC(=O)C(C(C)C)NC(=O)C(CC(C)C)NC(=O)C(CCC(=O)O)NC(=O)CNC1=O)C(=O)NC(C(C)O)C(=O)N1CCCC1C(=O)N1CC(NC(=O)COc3ccc(CC(=O)NCC4OCC(Nc5cncc(C(F)(F)F)n5)C(O)C4O)cc3)CC1C(=O)NC(CC(=O)O)C(=O)N2` (stereo not drawn) [compound 37]: the EC50 in assay [1] (setting [6]) is under 100 nM. Besides, the Kd in assay [2] (setting [5]) and in assay [3] was under 100 nM each time.
As for `CC(C)CC1NC(=O)C(Cc2cnc[nH]2)NC(=O)C(Cc2c[nH]c3ccccc23)NC(=O)C(C)NC(=O)C2CSSCC(NC(=O)C(Cc3c[nH]c4ccccc34)NC(=O)C(C(C)C)NC(=O)C(CC(C)C)NC(=O)C(CCC(=O)N(C)C)NC(=O)CNC1=O)C(=O)NC(C(C)O)C(=O)N1CCCC1C(=O)N1CC(NC(=O)CNC(COCCC(=O)NCCOCCOCCOCCOCC3OCC(Nc4cncc(C(F)(F)F)n4)C(O)C3O)COCCC(=O)NCCOCCOCCOCCOCC3OCC(Nc4cncc(C(F)(F)F)n4)C(O)C3O)CC1C(=O)NC(C)C(=O)N2` (stereo not drawn) [compound 72] (cyclo(GE(NMe2)LVWCTP[ξPro(4ξ-NH2)](X1)ACAWHL); disulfide 6-11; configuration not given here), the EC50 in assay [1] (setting [6]) is under 100 nM. Besides, the Kd in assay [2] (setting [7]) and in assay [3] was under 100 nM in each case.
Turning to `CC(C)CC1NC(=O)C(Cc2cnc[nH]2)NC(=O)C(Cc2c[nH]c3ccccc23)NC(=O)C(C)NC(=O)C2CSSCC(NC(=O)C(Cc3c[nH]c4ccccc34)NC(=O)C(C(C)C)NC(=O)C(CC(C)C)NC(=O)C(CCC(=O)O)NC(=O)CNC1=O)C(=O)NC(C(C)O)C(=O)N1CCCC1C(=O)N1CC(NC(=O)c3ccc(-c4ccc(C(=O)NCC5OCC(Nc6cncc(C(F)(F)F)n6)C(O)C5O)cc4)cc3)CC1C(=O)NC(CC(=O)O)C(=O)N2` (stereo not drawn) [compound 49], the EC50 in assay [1] (read-out: TCF EC50, 100 nM AF488-labeled antibody, 1 hour at 4° C., the 25th table, numeric bounds, nM from footnote) is over 686 nM. In addition, the Kd in assay [2] (setting [5]) and in assay [3] was under 100 nM each time.
Take `CC(C)CC1NC(=O)C(C)NC(=O)CNC(=O)C(CC(C)C)NC(=O)C(Cc2cnc[nH]2)NC(=O)C(Cc2c[nH]c3ccccc23)NC(=O)C(C)NC(=O)C2CSSCC(NC(=O)C(Cc3c[nH]c4ccccc34)NC(=O)C(C(C)C)NC1=O)C(=O)NC(C(C)O)C(=O)N1CCCC1C(=O)N1CC(NC(=O)CNC(COCCC(=O)NCCOCCOCCOCCOCC3OCC(Nc4cncc(C(F)(F)F)n4)C(O)C3O)COCCC(=O)NCCOCCOCCOCCOCC3OCC(Nc4cncc(C(F)(F)F)n4)C(O)C3O)CC1C(=O)NC(C)C(=O)N2` (stereo not drawn) [compound 71] (cyclo(GALVWCTP[ξPro(4ξ-NH2)](X1)ACAWHL); disulfide 6-11; configuration not given here): the EC50 in assay [1] (setting [6]) was under 100 nM. The Kd in assay [2] (setting [7]) and in assay [3] was under 100 nM throughout.
As for `CC(C)CC1NC(=O)C(Cc2cnc[nH]2)NC(=O)C(Cc2c[nH]c3ccccc23)NC(=O)C(C)NC(=O)C2CSSCC(NC(=O)C(Cc3c[nH]c4ccccc34)NC(=O)C(C(C)C)NC(=O)C(CC(C)C)NC(=O)C(CCC(=O)O)NC(=O)CNC1=O)C(=O)NC(C(C)O)C(=O)N1CCCC1C(=O)N1CC(NC(=O)c3ccc(N4CCC(CN5CCN(CC6OCC(Nc7cncc(C(F)(F)F)n7)C(O)C6O)CC5)CC4)nn3)CC1C(=O)NC(CC(=O)O)C(=O)N2` (stereo not drawn) [compound 42], the EC50 in assay [1] (setting [6]) was under 100 nM. Moreover, the Kd in assay [2] (setting [5]) and in assay [3] was under 100 nM each time.

In general, EC50 refers to the concentration that produces a half-maximal response. As usually defined, the Kd is the free concentration of one partner at which half of the binding sites on the other are occupied at equilibrium, for simple one-to-one binding.
